Test results from ChEMBL document CHEMBL3085759, “Structure-activity relationship (SAR) and preliminary mode of action studies of 3-substituted benzylthioquinolinium iodide as anti-opportunistic infection agents” (Eur J Med Chem, 2013).
Converted amounts (≈) assume the structure as drawn.

Assays:
[1] = system: Vero; experiment: Cytotoxicity against african green monkey Vero cells at 10 ug/ml after 48 hrs by Neutral Red dye assay; assay type: cell-based; conditions: chlorocebus sabaeus
[2] = system: Aspergillus fumigatus; experiment: Antimicrobial activity against Aspergillus fumigatus ATCC 204305 by Alamar blue method; assay type: functional, organism-based
[3] = system: Cryptococcus neoformans; experiment: Antimicrobial activity against Cryptococcus neoformans ATCC 90113 by Alamar blue method; assay type: functional, organism-based
[4] = system: Staphylococcus aureus; experiment: Antimicrobial activity against Staphylococcus aureus ATCC 29213 by Alamar blue method; assay type: functional, organism-based; conditions: Staphylococcus aureus, ATCC 29213; for IC50: read-out: IC50
[5] = system: Staphylococcus aureus; experiment: Antimicrobial activity against methicillin-resistant Staphylococcus aureus ATCC 33591 by Alamar blue method; assay type: functional, organism-based
[6] = system: Candida albicans; experiment: Antimicrobial activity against Candida albicans ATCC 90028 by Alamar blue method; assay type: functional, organism-based
[7] = system: Nakaseomyces glabratus; experiment: Antimicrobial activity against Candida glabrata by Alamar blue method; assay type: functional, organism-based
[8] = system: Pichia kudriavzevii; experiment: Antimicrobial activity against Candida krusei ATCC 6258 by Alamar blue method; assay type: functional, organism-based
[9] = system: Mycobacterium intracellulare; experiment: Antimicrobial activity against Mycobacterium intracellulare ATCC 23068 by Alamar blue method; assay type: functional, organism-based

| Compound | IC50 [2] [µg/mL] | MFC [2] [µg/mL] | MIC [2] [µg/mL] | MFC [3] [µg/mL] | MIC [3] [µg/mL] | MBC [4] [µg/mL] | MIC [4] [µg/mL] | IC50 [4] [µg/mL] | IC50 [5] [µg/mL] | MBC [5] [µg/mL] | MIC [5] [µg/mL] | IC50 [6] [µg/mL] | MFC [6] [µg/mL] | MIC [6] [µg/mL] | IC50 [7] [µg/mL] | MIC [7] [µg/mL] | IC50 [8] [µg/mL] | MIC [8] [µg/mL] | IC50 [9] [µg/mL] | MIC [9] [µg/mL] | other results |
| --- | --- | --- | --- | --- | --- | --- | --- | --- | --- | --- | --- | --- | --- | --- | --- | --- | --- | --- | --- | --- | --- |
| FC(F)(F)c1ccccc1CSc1cc2ccccc2[n+](CCCCCC2CCCCC2)c1.[I-] | 3.7 | 10 | 5 | 1.3 | 0.63 | 1.3 | 0.31 | 0.19 | 0.22 | 1.3 | 0.63 | 0.97 | 5 | 2.5 | 2.7 | 5 | 0.43 | 1.3 | 3.4 | 5 | Activity [1]: Non-toxic; IC50 [3]: 0.42 µg/mL; MBC [9]: 5 µg/mL |
| N#Cc1ccc(CSc2cc3ccccc3[n+](CCCCCC3CCCCC3)c2)cc1.[I-] | 8.6 | 20 | 20 | 2.5 | 2.5 | 5 | 5 | 1.8 | 2.2 | 5 | 5 | 2.5 | 10 | 5 | 11 | 20 | 5.7 | 10 | > 20 | > 20 | Activity [1]: Non-toxic; IC50 [3]: 0.81 µg/mL; MFC [7]: 20 µg/mL; MFC [8]: 10 µg/mL; MBC [9]: > 20 µg/mL |
| Fc1ccc(Oc2cc3ccccc3[n+](CCCCCC3CCCCC3)c2)cc1.[I-] | > 20 | > 20 | > 20 | 10 | 10 | > 20 | 20 | 14 | 14 | > 20 | > 20 | > 20 | > 20 | > 20 | > 20 | > 20 | > 20 | > 20 | 20 | 20 | IC50 [3]: 8.62 µg/mL; MFC [7]: > 20 µg/mL; MFC [8]: > 20 µg/mL; MBC [9]: 20 µg/mL |
| [I-].c1ccc(Oc2cc3ccccc3[n+](CCCCCC3CCCCC3)c2)cc1 | > 20 | > 20 | > 20 | > 20 | > 20 | > 20 | > 20 | 19 | > 20 | > 20 | > 20 | > 20 | > 20 | > 20 | > 20 | > 20 | > 20 | > 20 | > 20 | > 20 | IC50 [3]: > 20 µg/mL; MFC [7]: > 20 µg/mL; MFC [8]: > 20 µg/mL; MBC [9]: > 20 µg/mL |
| [I-].c1ccc(CSc2cc3ccccc3[n+](CCCCCC3CCCCC3)c2)cc1 | 5.7 | 20 | 10 | 0.63 | 0.31 | 10 | 0.31 | 0.23 | 0.33 | 1.3 | 0.63 | 1.6 | 5 | 5 | 2.9 | 5 | 0.71 | 1.3 | 4 | 5 | Activity [1]: Non-toxic; MFC [7]: 5 µg/mL; MFC [8]: 1.3 µg/mL; MBC [9]: 20 µg/mL |
| CC(C)(C)c1ccc(CSc2cc3ccccc3[n+](CCCCCC3CCCCC3)c2)cc1.[I-] | > 20 | > 20 | > 20 | 10 | 1.3 | > 20 | > 20 | > 20 | 12 | > 20 | 20 | 20 | > 20 | > 20 | > 20 | > 20 | 1.2 | 20 | > 20 | > 20 | Activity [1]: Non-toxic; MFC [7]: > 20 µg/mL; MFC [8]: 20 µg/mL; MBC [9]: > 20 µg/mL |
| [I-].c1ccc(CCSc2cc3ccccc3[n+](CCCCCC3CCCCC3)c2)cc1 | 19 | > 20 | > 20 | 1.3 | 1.3 | 10 | 1.3 | 0.73 | 1.2 | 10 | 2.5 | 3.6 | > 20 | > 20 | 9.5 | 20 | 0.69 | 5 | 12 | 20 | IC50 [3]: 0.73 µg/mL; MFC [7]: > 20 µg/mL; MFC [8]: 5 µg/mL |
| Ic1cc2ccccc2[n+](CCCCCC2CCCCC2)c1.[I-] | > 20 | > 20 | > 20 | 10 | 10 | > 20 | > 20 | 18 | > 20 | > 20 | > 20 | > 20 | > 20 | > 20 | > 20 | > 20 | 1.7 | 10 | > 20 | > 20 | IC50 [3]: 5.8 µg/mL; MFC [7]: > 20 µg/mL; MFC [8]: 10 µg/mL; MBC [9]: > 20 µg/mL |
| [I-].c1ccc2c(c1)cc(SC1CCCCC1)c[n+]2CCCCCC1CCCCC1 | > 20 | > 20 | > 20 | 2.5 | 2.5 | 10 | 1.3 | 0.74 | 1.2 | 10 | 2.5 | > 20 | > 20 | > 20 | 15 | > 20 | 0.35 | 2.5 | 8.4 | 10 | IC50 [3]: 1.2 µg/mL; MFC [7]: > 20 µg/mL; MFC [8]: 2.5 µg/mL; MBC [9]: 10 µg/mL |
| O=C(O)c1cn(C2CC2)c2cc(N3CCNCC3)c(F)cc2c1=O [CIPROFLOXACIN] |  |  |  |  |  |  | 0.5 (≈ 1.51 µM) |  |  |  | 0.5 (≈ 1.51 µM) |  |  |  |  |  |  |  | 0.005 (≈ 0.0151 µM) | 0.45 (≈ 1.36 µM) |  |
